In patent publication US10732173B2, “Use of aldehyde dehydrogenase as biomarker for beta-cell dysfunction and loss” (THE TRUSTEES OF COLUMBIA UNIVERSITY IN THE CITY OF NEW YORK, priority 2015, dated 2020):

Test system: MIN6 cells overexpressing ALDH1A3
Assay: Glucose-stimulated insulin secretion in the presence of the ALDH inhibitor DEAB
Assay type: cell-based, mouse
Details: MIN6 cells overexpressing ALDH1A3, in the presence of DEAB (FIG. 12F)

`CCN(CC)c1ccc(C=O)cc1` [DEAB, N,N-diethylaminobenzaldehyde] was tested, and the “effect on insulin secretion” value was “did not detect an effect”.
